Assay results taken from article PMC12120022, “Discovery and chemical optimisation of a potent, Bi-cyclic antimicrobial inhibitor of Escherichia coli PBP3” (Communications Biology, 2025).
Like-named read-outs stand apart in the source and are kept apart here.

How the values were obtained:
EcPBP3 [1] = target: T1, EcPBP3 (Escherichia coli, UniProt P0AD68); assay: Fluorescence polarisation competition assay with BOCILLIN-FL as tracer; assay type: binding; settings: competition format, NB, non-binder (100 μM top concentration)
T1 construct: For assays, selections and SPR a construct with residues 60–588 which has the N-terminal domain, but not the transmembrane helix, was used; made in house
Protocol: Binding of output peptides to EcPBP3 was evaluated using a fluorescence polarisation (FP) assay.
[…] 10 µL of protein (9.4 nM) was mixed with either 5 µL of peptide or 5 µL of buffer and then the assay was initiated by the addition of 10 µL of tracer (1 nM) (final volume 25 µL), in a black 384 low bind, low volume plate (Corning). The buffer was 10 mM HEPES (Sigma), 2% (v/v) glycerol (Sigma), 300 mM NaCl (Sigma), adjusted to pH 8. The plate was incubated for 1 h at 25 °C and then read in a PHERAstar FS (BMG) using with an “FP 485 520 520” optic module (excitation 485 nm, emission 520 nm). The gain was determined immediately prior to the read on a tracer-only well.
Dotmatics (Dotmatics) workflows performing the above calculations were used to process the data. Values quoted are the geometric means of at least 2 repeats.

EcPBP3 [2] = target: T1, EcPBP3; assay: Fluorescence polarisation competition assay with fluorescent Bicycle tracer (tracer 1 / BCY12820); assay type: binding; settings: protein 9.4 nM sets sensitivity limit, top concentration 5 µM, read-out: Ki (nM) by fluorescence polarisation with tracer 1 (BCY12820 as tracer), Geometric mean (Lower 95% CI; Upper 95% CI, n=number of values)
How it was run: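 Unlabelled peptide competes with fluorescent Bicycle tracer (1 nM, as added) for EcPBP3 (9.4 nM, as added) in 10 mM HEPES, 2% glycerol, 300 mM NaCl, pH 8.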

EcPBP3 [3] = target: T1, EcPBP3; assay: SPR binding assay on immobilised EcPBP3; settings: 37 °C, kinetic fitting; NB = no binding at 2500 nM (Tables S-4, S-5) or 5000 nM (Table 1); read-out: Kd (nM) by SPR (geomean)
How it was run: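 EcPBP3 amine-coupled to CM5 chip (1500-2500 RU); compounds injected at 37 °C in 10 mM HEPES pH 8.0, 200 mM NaCl, 0.05% Tween-20, 2% DMSO, 50 μL min^–1, 150 s contact, 2400 s dissociation. Double-referenced sensorgrams kinetically fitted for Kd; geometric mean of ≥2 biological replicates.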

E. coli GKCW101 (WT) = settings: caMHB; biological replicates or their range
Protocol: (§1) To evaluate the engagement of EcPBP3 by a bicyclic peptide in whole cells lacking the outer membrane permeability barrier, peptides were screened in ‘hyperporinated’ E. coli strains in which a constitutively open FhuA pore (FhuAΔC/Δ4L, lacking N-terminal cork domain and external loops) was chromosomally expressed under control of an arabinose-inducible promoter.
(§2) Minimal inhibition concentration (MIC) assays were performed in accordance with CLSI standards, using cation-adjusted Mueller Hinton broth (caMHB; Sigma Aldrich) unless otherwise specified. Induction of pore expression in hyperporinated strains E. coli GKCW101 and GKCW102 was performed by addition of 0.1% (w/v) L-arabinose to cultures at OD600 ~ 0.3, with caMHB as the culture medium.

E. coli GKCW102 (EcPore) = settings: caMHB, biological replicates or their range
Protocol: as §1, §2

E. coli ATCC 25922 = assay: MIC, wild-type strain; assay type: cell-based, Escherichia coli; settings: MHB; biological replicates or their range
Protocol: as §2

PBPs in E. coli = assay: Bocillin FL staining of PBPs extracted from bacterial membranes; assay type: binding, E. coli strain DC2; settings: peptides at 3 µM, membranes of E. coli DC2
Protocol: Staining of PBPs extracted from bacterial membranes with Bocillin FL was used to determine the binding of peptide 2 (and its all-D analogue) to other PBPs in E. coli[8].
Method was adapted from that described by Kocaoglu and Carlson[8]. E. coli strain DC2 cells were grown overnight at 37 °C then diluted 100-fold and allowed to grow at 37 °C to an OD600 of 0.5 in Lysogeny broth (LB). The cells were then centrifuged (3220 x g for 10 min at room temperature) and washed once in PBS (pH 7.4) then pelleted and resuspended in ice-cold PBS. Cells were sonicated (Fisherbrand™ Model 505 Sonic Dismembrator) on ice for five 10 s intervals with 15 s cooling time in between rounds. The membranes were collected by centrifugation (21,000 x g for 15 min at 4 °C) and resuspended the pellet in 100 µL PBS using a blunt needle. The resuspended membranes were incubated with the indicated compound for 15 min at room temperature then 10 µg ml^–1 BOCILLIN-Fl (Invitrogen) was added and reacted with the resuspended membranes for 10 min. […] The total protein content of each condition was normalised to 2.5 mg ml^–1 by measuring the absorbance at A280 and adjusting where necessary with the addition of PBS. […] Following fluorescence imaging, the gel was stained with InstantBlue Ultrafast protein stain (Abcam), washed twice in water and imaged in brightfield with an iBright FL1500.

T1 sequence (P0AD68 60-588): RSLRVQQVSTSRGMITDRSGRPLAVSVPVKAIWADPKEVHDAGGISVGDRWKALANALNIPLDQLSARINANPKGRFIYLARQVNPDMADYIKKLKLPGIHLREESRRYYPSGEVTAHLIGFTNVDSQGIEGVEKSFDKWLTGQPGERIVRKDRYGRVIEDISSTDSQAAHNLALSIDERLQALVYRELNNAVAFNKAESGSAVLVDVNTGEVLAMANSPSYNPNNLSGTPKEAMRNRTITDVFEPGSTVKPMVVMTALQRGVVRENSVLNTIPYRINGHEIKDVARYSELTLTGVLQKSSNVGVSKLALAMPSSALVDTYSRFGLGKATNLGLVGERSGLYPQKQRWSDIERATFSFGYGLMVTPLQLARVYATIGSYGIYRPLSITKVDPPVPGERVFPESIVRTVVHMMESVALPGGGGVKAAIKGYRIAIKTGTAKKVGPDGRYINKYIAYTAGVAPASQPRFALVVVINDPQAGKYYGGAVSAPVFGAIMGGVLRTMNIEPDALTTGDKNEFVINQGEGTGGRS

Q: What does the source list for `CC(C)[C@@H]1NC(=O)[C@H](Cc2c[nH]c3ccccc23)NC(=O)[C@@H]2CCCN2C(=O)[C@@H]2CSCCC(=O)N3CN(CN(C3)C(=O)CCSC[C@H](NC(=O)[C@H](C)N)C(=O)N[C@@H](CO)C(=O)N[C@@H](Cc3ccccc3)C(=O)N3CCC[C@H]3C(=O)N[C@@H](CCCCN)C(=O)N2)C(=O)CCSC[C@@H](C(=O)N[C@@H](C)C(N)=O)NC(=O)CNC(=O)[C@H](CCC(=O)O)NC1=O` [Peptide 2]?
A: IC50 (nM) by fluorescence polarisation with Bocillin FL as tracer, Geometric mean (Lower 95% CI of geo. Mean; Upper 95% CI of geo. Mean, n=number of values) (EcPBP3 [1]): showed binding to EcPBP3; IC50 (EcPBP3 [1]; read-out: IC50 (nM) by fluorescence polarisation with Bocillin FL as tracer, Geometric mean (Lower 95% CI of geo. Mean; Upper 95% CI of geo. Mean, n=number of values)): 602 nM; Ki (EcPBP3 [2]): < 9 nM; Kd (EcPBP3 [3]): 5.23 nM; MIC E. coli GKCW101 (WT) (E. coli GKCW101 (WT)): > 128 µg/mL; MIC E. coli GKCW102 (EcPore) (E. coli GKCW102 (EcPore)): 0.5 to 2 µg/mL; MIC E. coli GKCW102 (EcPore) (E. coli GKCW102 (EcPore); listed as peptide 2): 0.5 to 2 µg/mL; MIC E. coli ATCC 25922 (E. coli ATCC 25922): > 16 µg/mL; Binding to other PBPs in E. coli (Bocillin FL staining) (PBPs in E. coli): bound only to the active site of E. coli PBP3
